Results published in patent US20040034021A1, “Intravenous rifalazil formulation and methods of use thereof” (priority 2002, published 2004).
≈ marks a conversion by molar mass, not a printed value.

How the values were obtained:
S. aureus = test: MIC by broth microdilution method; type: cell-based; details: Staphylococcus aureus, CAMH broth, vehicle as in Example 2, 35-37° C., 20-24 hours
Method: The MIC (minimum inhibitory concentration) of rifalazil against S. aureus was determined by the broth microdilution method. A vehicle prepared as described in Example 2 was diluted in Cation Adjusted Mueller-Hinton (CAMH) broth to create working solutions that were 4× the maximum concentration to be tested on each microtiter plate. The 4× working solutions were added to the wells of the 96 well microtiter plate and serially diluted two-fold across 11 wells into CAMH.
To prepare the test strain inoculum, 3-5 colonies of S. aureus from a pure 18-24 hour culture grown on a primary agar plate were emulsified into demineralized water and adjusted to a 0.5 McFarland turbidity standard using a calibrated nephelometer. This suspension was then diluted further (1:100) into CAMH broth to yield an inoculum suspension containing approximately 10^6 CFU/ml. Aliquots of the inoculum suspension were added to the rifalazil-containing wells to yield a final concentration in the well of 1-8×10^5 CFU/ml. The microtiter plates were incubated at 35-37° C. for 20-24 hours. The MIC was read as the lowest concentration of the compound that inhibits visible growth.

[1] = solubility of rifalazil in aqueous test solutions (UV-Vis); type: physicochemical
Method: In order to determine its solubility, to a vial containing solid rifalazil was added a volume of aqueous test solution. The vial was capped and sonicated for about an hour and the remaining undissolved solids were left to settle overnight. The vial was then vortexed for 1 minute, sonicated for another 30 minutes, and centrifuged for 1 hour at 3500 RPM. The supernatent was separated from undissolved rifalazil. The concentration of rifalazil in the test solution was determined by UV-Vis absorbance using a suitable spectrophotometer. Using this method, the solubility of rifalazil was determined as a function of pH (see FIG. 1); in PEG 400-water, propylene glycol-water, and ethanol-water mixtures (see FIG. 2); in Tween-40-water and Tween-80-water mixtures (see FIG. 3); in dodecyltrimethylammonium bromide-water, sodium chenodeoxycholate-water, sodium Octylsulfate-water, sodium deoxycholate-water, sodium cholate-water, and sodium dodecylsulfate-water mixtures (see FIG. 4); in sodium dodecylsulfate- water mixtures at pH 5.4 and 7.4 (see FIG. 5); and in PEG-35 castor oil-water mixtures (see FIG. 6).

[2] = stability against hydrolytic degradation to des-acetyl rifalazil (HPLC); type: physicochemical
Method: Rifalazil solutions containing the micelle-forming excipient PEG-35 castor oil, prepared as described in Example 2, and without a micelle-forming excipient (15% ethanol, phosphate buffer pH=7.6, 0.9% NaCl) were monitored for stability against the hydrolytic degradation of rifalazil at temperatures of 25° C., 40° C., 50° C., and 60° C. (see FIGS. 7 and 8). The degradation was monitored for several days by HPLC for the disappearance of rifalazil or the appearance of des-acetyl rifalazil, the degradation product that results from the hydrolysis of rifalazil.

CO[C@H]1/C=C/O[C@@]2(C)Oc3c(C)c(O)c4c(=O)c(c5oc6cc(N7CCN(CC(C)C)CC7)cc(O)c6nc-5c4c3C2=O)NC(=O)/C(C)=C\C=C\[C@H](C)[C@H](O)[C@@H](C)[C@@H](O)[C@@H](C)[C@H](OC(C)=O)[C@@H]1C [Rifalazil, rifalazil]
MIC (S. aureus): 0.015 µg/mL (≈ 0.0159 µM) | ratio of 100 μg/mL (typical low IV dosage concentration) to solubility of the drug in water ([1]; water at pH 7 (FIG. 1)): 5,000 times | solubility in water ([1]; water at physiological pH): virtually insoluble | effect of micelle-forming excipient on hydrolytic degradation of rifalazil ([2]; PEG-35 castor oil solution of Example 2 vs 15% ethanol, phosphate buffer pH 7.6, 0.9% NaCl, 25-60° C. (FIGS. 7 and 8)): inhibits the hydrolytic degradation | hydrolytic degradation of rifalazil ([2]; aqueous environments under ambient conditions, no micelle-forming excipient (FIG. 8)): occurs readily
